Assay results published in a melting point compilation (Tetko et al.; mined from patent text by program, amines drawn as free bases though some values may be those of a salt).

Row | Compound | melting point
1 | CCn1ncc2c1ncc1c(OCCN(C)C)nc3ncnn3c12 | 149 to 150 °C
2 | CSc1ncc2cc(Cc3ccccc3F)c(=O)n(C)c2n1 | 156 to 159 °C
3 | O=Cc1ccc2c(c1)ncn2-c1cccc(Br)c1 | 179 to 181 °C
4 | COc1ccccc1-c1ccc(C#N)c(=O)[nH]1 | 236 to 238 °C
5 | O=C(Cc1cccc(C(F)(F)F)c1)Nc1c(Br)cccc1Br | 169 to 170 °C
6 | Cc1nnc(-c2nsc3ccc([N+](=O)[O-])cc23)o1 | > 250 °C
7 | Cc1ccc(S(=O)(=O)N2C[C@H](O)C[C@H]2CO)cc1 | 127 °C
8 | COC(=O)c1ccc2oc(-c3ccc(C(F)(F)F)cc3)cc2c1 | 180 °C
9 | CCN(CC)S(=O)(=O)c1ccccc1N | 45 to 51 °C
10 | CCCC(CCC)n1c(CC)nc2c1c(=O)n(C)c(=O)n2-c1c(C)cc(C)cc1C | 195 to 196 °C
11 | CC(=O)NC12Oc3c(C(C)C)cc(C(C)C)cc3C1(O)C(=O)c1ccccc12 (centres undefined) | 217 to 219 °C
12 | Cn1c2c(c(=O)[nH]c1=O)CCC2 | 250 to 251 °C
13 | Cc1c(-c2ccc(F)cc2)n(Cc2ccc(OCCBr)cc2)c2ccc(OCc3ccccc3)cc12 | 114 to 116 °C
14 | COc1cccc2c1CCc1nc(-c3ccncc3)oc1-2 | 158 °C
15 | Cc1cc2cc(CN3CCCC3)cnc2cc1NC(=O)c1ccc(-c2ccc(Cl)cc2)cc1 | 214 to 217 °C
16 | CCOC(=O)c1[nH]c(-c2ccc(Cl)cc2)nc1C | 237 to 238 °C
17 | FC(F)(F)Oc1ccc(-c2ccc3[nH]c4c(ccc5cc[nH]c54)c3c2)cc1 | > 250 °C
18 | COC(=O)C1OC(OC(=N)C(Cl)(Cl)Cl)C(OC(=O)C(C)C)C(OC(=O)C(C)C)C1OC(=O)C(C)C (centres undefined) | 108 °C
19 | CC1(C)CN=C2N(C1)c1ccc(C#N)cc1C21OCCCO1 | 178 to 184 °C
20 | CCn1ncc2c1ncc1c(=O)[nH]c3nc(S(C)=O)nn3c12 (centres undefined) | > 300 °C
21 | O=C(NC(=O)N(SN1CCCCC1=O)c1ccc(Oc2ccc(C(F)(F)F)cc2Cl)cc1F)c1c(F)cccc1F | 139 to 141 °C
22 | COc1c(Cl)ccc(-c2cc(N)c(Cl)c(C(=O)OCc3ccc(Cl)cc3Cl)n2)c1F | 165 to 168 °C
23 | CN(c1cccc2cc(C3=NCC(C)(CN4CCN(S(C)(=O)=O)CC4)S3)[nH]c12)S(=O)(=O)c1cccs1 (centres undefined) | 209 to 210 °C

Row | Compound | melting point
24 | CCCCCCCCCC=COC1OC(CO)C(O)C(O)C1NC(C)=O (centres undefined) | 152 to 154 °C
25 | CCCCCCCCCCCCCCN(C(=O)CCCCCCCCCCC)C1(N)OC(CO)C(O)C(O)C1C(=O)C(N)C(=O)C(C)N (centres undefined) | 115 to 117 °C
26 | Cc1nc2c(N)nc3ccccc3c2n1CCC(N)=O | 237 to 239 °C
27 | CN(C)Cc1nc(N)nc(N)c1-c1ccc(Cl)cc1Cl | 170 to 172 °C
28 | CNC(=O)c1ccccc1Nc1nc(Nc2cc3c(cc2OC)CCOC(=O)N3C)ncc1Br | 251 to 253 °C
29 | CCCn1c(=O)c2c(nc(/C=C/c3ccco3)n2C)n(CCC)c1=O | 161 to 162 °C
30 | Cn1c(Sc2cc(C(F)(F)F)ccc2C(=O)O)n[nH]c1=O | 229 °C
31 | Cc1sc2c(c1C)C(c1ccc(Cl)cc1)=NCc1nnc(C)n1-2 | > 250 °C
32 | O=C(Nc1ccccc1O)c1cccnc1Cl | 145 to 146 °C
33 | CCOC(=O)CSc1nc(Cl)cc(Nc2ccc(OC)cc2)n1 | 96 to 97.5 °C
34 | c1ccc(-c2c[nH]c([C@@H](Cc3c[nH]c4ccccc34)Nc3ncccn3)n2)cc1 | 138 to 140 °C
35 | O=Cc1c[nH]c2cc(C(=O)NCC3CCCC3)ccc12 | 224 to 225 °C
36 | COc1ccc(N2CCN(c3c(C)c(C)c4c(c3C)C(OCc3ccccc3)C(C)(C)O4)CC2)cc1 (centres undefined) | 98 to 99 °C
37 | COc1ccc(-c2cc(C(O)C(F)(F)F)[nH]c2-c2ccc(OC)cc2)cc1 (centres undefined) | 84 to 86 °C
38 | CN1C(=O)[C@H](NC(=O)CCc2ccccc2)N=C(c2ccccc2)c2ccccc21 | 179 °C
39 | O=C(O)Cc1c(C(=O)c2ccc(-c3ccco3)cc2)[nH]c2cc(Cl)ccc12 | 230 to 232 °C
40 | Cn1nnnc1NCC(O)COc1cccc(CN2CCCCC2)c1 (centres undefined) | 156 to 157 °C
41 | CCOc1ccccc1-c1cccc(-n2cnc(-c3nc(C)no3)c2)c1 | 110 to 113 °C
42 | CC(C)(C)CNc1nc(C#N)nc2ccc(OCc3ccncc3)cc12 | 203 to 205 °C
43 | N#CC1CN1C(=O)CNC(=O)c1ccccc1 (centres undefined) | 78 to 81 °C
44 | CC(C)Oc1nsc(N)c1C#N | 146 to 148 °C
45 | Fc1ccc(N2CCN(Cc3cn4cc(Cl)ccc4n3)CC2)cc1 | 130 to 131 °C

Results, then the compound that gave them:

Row | melting point | Compound
46 | 195 to 196 °C | CC(C)(C)C(NC(=O)Cc1ccc(Cl)cc1)NC(=NC#N)Nc1cccc2ncccc12 (centres undefined)
47 | 238 °C | Cn1cnnc1C(N)(c1ccc(I)cc1)c1ccc2c(c1)c(-c1cccc(Cl)c1)nc1nnnn12 (centres undefined)
48 | 278 to 281 °C | O=C(O)Cc1ccc2occ(-c3ccc(C(=O)O)cc3)c2c1
49 | 190 to 193 °C | CCc1ccc(C(=O)O)c(O)n1
50 | 165 to 166 °C | Oc1ccc2c(c1)C=CC=CS2
51 | 92 to 93 °C | O=C(C1CCCCC1)N1CC(=O)N2CCOc3ccccc3C2C1 (centres undefined)
52 | 90 to 92 °C | COC(=O)c1cc(CC#N)cc(CC#N)c1
53 | 136 to 138 °C | CNC(=O)Cc1ccc(N)c(N)c1
54 | > 250 °C | O=C(O)c1[nH]c2cc(Cl)cc(Cl)c2c1C=C1CCNN(c2ccccc2)C1=O
55 | 195 to 198 °C | COc1ccc2c(c1)CCC(NCC(=O)O)C2 (centres undefined)
56 | 137 to 140 °C | CCCCn1c2c(c(=O)n(CCCC)c1=O)CN(S(=O)(=O)Cc1ccccc1)N2
57 | 58 to 59 °C | CCOC(=O)c1cncc(C#N)c1
58 | 256 to 258 °C | O=c1cc(-c2ccc(O)c(F)c2)oc2ccc(CO)cc12
59 | > 300 °C | Cc1cc2n[nH]c(=O)n2nc1-c1cccc([N+](=O)[O-])c1
60 | 337 to 339 °C | C[C@H](NC(=O)c1c[nH]c2ncc(-c3cn(-c4cccc(Cl)c4)cn3)nc12)C(C)(C)C
61 | 148 to 151 °C | NCC(=O)N(C(=O)C(O)c1ccccc1)c1ccccc1 (centres undefined)
62 | > 300 °C | COC(=O)c1ccc(-c2nnc3n2-c2cccnc2Nc2ccccc2-3)cc1
63 | 240 °C | CCNC(=O)Nc1cnc2ccc(Cl)nc2n1
64 | 31 to 32 °C | CSc1nc(F)cc(F)n1
65 | 153 to 154 °C | CCC[C@H](N[C@@H](C)C(=O)O)C(=O)OCC
66 | 250 °C | CCOc1cc(CC)ccc1C1CCN(CCCCNC(=O)c2ccc(NC(=O)c3ccc(Cl)cc3)cc2)CC1
67 | 240 °C | O=P1(O)Oc2ccccc2-c2cc(C(F)(F)F)ccc21
68 | 175 °C | CC1=NOC(c2c(S(C)(=O)=O)ccc(C(=O)O)c2Cl)C1 (centres undefined)
69 | 145 °C | CS(=O)(=O)c1ccc(Cl)cc1[N+](=O)[O-]
70 | 188 °C | O=c1c(Oc2ccc(-c3ccncc3)cc2)c(-n2ccnc2)cnn1-c1ccc(Cl)cc1
71 | 142 to 143 °C | Cc1ccc(CCN(C)CCCCCC2Cc3cc(O)ccc3C3C(F)CC4(C)C(O)CCC4C23)cc1 (centres undefined)
72 | > 275 °C | Cc1ccc(C)c(CNc2cccc(S(=O)(=O)O)c2)c1
73 | 86 to 89 °C | C=CCN(C)S(=O)(=O)CC(=O)C=C(C)N
74 | 165 to 169 °C | OCC#Cc1cc(Cl)cc2nc(-c3ccccc3Cl)oc12
